Laboratory results as given in EP2998289B1, “COMPOUNDS FOR TARGETING DRUG DELIVERY AND ENHANCING SIRNA ACTIVITY” (NITTO DENKO CORPORATION, priority 2011, dated 2012).

Experiments:
gp46 [1] = experiment: pHSC in vitro assay: gp46/HSP47 mRNA knockdown by siRNA formulations, qRT-PCR; conditions: for in vitro (pHSC) % KD: @ 50 nM, label = cationic lipid of the formulation, 2880 min; for in vitro (pHSC) EC50 or % KD: % KD @ 50 nM, 20:20 HEDC:S104 with 2% conjugate
gp46 [2] = experiment: in vivo efficacy, rat DMNQ short-term liver damage model (liver gp46 mRNA)
[3] = @ 0.75 mpk, 20:20 HEDC:S104 with 2% retinoid conjugate

Compound	in vitro (pHSC) % KD (gp46 [1]) [% @ 50 nM]	also measured
CCCCCCCC/C=C\CCCCCCCC(=O)OCCN(CCOC(=O)CCCCCCC/C=C\CCCCCCCC)C(=O)CCC[N+](C)(C)CCO.[Br-] [HE-Pr-DODC, 4-(bis(2-(oleoyloxy)ethyl)amino)-N-(2-hydroxyethyl)-N,N-dimethyl-4-oxobutan-1-aminium bromide]	75	–
CC1=C(/C=C/C(C)=C/C=C/C(C)=C/C(=O)NCCCC[C@H](NC(=O)/C=C(C)/C=C/C=C(C)/C=C/C2=C(C)CCCC2(C)C)C(=O)NCCCOCCOCCOCCCNC(=O)CCOCCOCCOCCOCCOCCC(=O)NCCCOCCOCCOCCCNC(=O)[C@H](CCCCNC(=O)/C=C(C)/C=C/C=C(C)/C=C/C2=C(C)CCCC2(C)C)NC(=O)/C=C(C)/C=C/C=C(C)/C=C/C2=C(C)CCCC2(C)C)C(C)(C)CCC1 [DiVA, N1,N19-bis((S,23E,25E,27E,29E)-16-((2E,4E,6E,8E)-3,7-dimethyl-9-(2,6,6-trimethylcyclohex-1-en-1-yl)nona-2,4,6,8-tetraenamido)-24,28-dimethyl-15,22-dioxo-30-(2,6,6-trimethylcyclohex-1-en-1-yl)-4,7,10-trioxa-14,21-diazatriaconta-23,25,27,29-tetraen-1-yl)-4,7,10,13,16-pentaoxanonadecane-1,19-diamide]	–	in vivo (rat DMNQ) % KD (gp46 [2]; [3]): 60% @ 0.75 mpk; inhibition at 0.05 µM (gp46 [1]; Rattus norvegicus, read-out: in vitro (pHSC) EC50 or % KD): 74%
CCCCCCCC/C=C\CCCCCCCC(=O)OCCCN(CCCOC(=O)CCCCCCC/C=C\CCCCCCCC)C(=O)C[N+](C)(C)CCO.[Br-] [Pr-HE-DODC, 2-(bis(3-(oleoyloxy)propyl)amino)-N-(2-hydroxyethyl)-N,N-dimethyl-2-oxoethanaminium bromide]	73	–
CCCCCCCCCCCCCC(=O)OCCCN(CCCOC(=O)CCCCCCCCCCCCC)C(=O)C[N+](C)(C)CCO.[Br-] [Pr-HEDC, 2-(bis(3-(tetradecanoyloxy)propyl)amino)-N-(2-hydroxyethyl)-N,N-dimethyl-2-oxoethanaminium bromide]	75	–
N1,N19-bis((16S)-16-(3,7-dimethyl-9-(2,6,6-trimethylcyclohex-1-en-1-yl)nonanamido)-24,28-dimethyl-15,22-dioxo-30-(2,6,6-trimethylcyclohex-1-en-1-yl)-4,7,10-trioxa-14,21-diazatriacontyl)-4,7,10,13,16-pentaoxanonadecane-1,19-diamide [satDiVA]	–	in vivo (rat DMNQ) % KD (gp46 [2]; [3]): 74% @ 0.75 mpk; in vitro (pHSC) EC50 or % KD (gp46 [1]): 73% @ 50 nM
CCCCCCCCCCCCCC(=O)OCCN(CCOC(=O)CCCCCCCCCCCCC)C(=O)CC[N+](C)(C)CCO.[Br-] [HE-Et-DC, 3-(bis(2-(tetradecanoyloxy)ethyl)amino)-N-(2-hydroxyethyl)-N,N-dimethyl-3-oxopropan-1-aminium bromide]	70	–
CCCCCCCC/C=C\CCCCCCCC(=O)OCCN(CCOC(=O)CCCCCCC/C=C\CCCCCCCC)C(=O)CC[N+](C)(C)CCO.[Br-] [HE-Et-DODC, 3-(bis(2-(oleoyloxy)ethyl)amino)-N-(2-hydroxyethyl)-N,N-dimethyl-3-oxopropan-1-aminium bromide]	71	–
CCCCCCCC/C=C\CCCCCCCC(=O)OCCN(CCOC(=O)CCCCCCC/C=C\CCCCCCCC)C(=O)C[N+](C)(CCO)CCO.[Br-] [HE2DODC, 2-(bis(2-(oleoyloxy)ethyl)amino)-N,N-bis(2-hydroxyethyl)-N-methyl-2-oxoethanaminium bromide]	78	–
CCCCCCCCCCCCCC(=O)OCCN(CCOC(=O)CCCCCCCCCCCCC)C(=O)CCC[N+](C)(C)CCO.[Br-] [HE-Pr-DC, 4-(bis(2-(tetradecanoyloxy)ethyl)amino)-N-(2-hydroxyethyl)-N,N-dimethyl-4-oxobutan-1-aminium bromide]	47	–
N1,N19-bis((R)-1,8-dioxo-7-(4-((E)-2-(5,5,8,8-tetramethyl-5,6,7,8-tetrahydro-naphthalen-2-yl)prop-1-en-1-yl)benzamido)-1-(4-((E)-2-(5,5,8,8-tetramethyl-5,6,7,8-tetrahydronaphthalen-2-yl)prop-1-en-1-yl)phenyl)-13,16,19-trioxa-2,9-diazadocosan-22-yl)-4,7,10,13,16-pentaoxanonadecane-1,19-diamide [Example 4TTNPB]	–	in vitro (pHSC) EC50 or % KD (gp46 [1]): 34% @ 50 nM
CCCCCCCCCCCCCC(=O)OCCN(CCOC(=O)CCCCCCCCCCCCC)C(=O)C[N+](C)(C)CCO.[Br-] [HEDC, 2-(bis(2-(tetradecanoyloxy)ethyl)amino)-N-(2-hydroxyethyl)-N,N-dimethyl-2-oxoethanaminium bromide]	68	in vivo (rat DMNQ) % KD (gp46 [2]; @ 0.5 mpk, label = cationic lipid of the formulation): 52% @ 0.5 mpk
CCCCCCCCCCCCCC(=O)NCCCC[C@@H](NC(=O)CCCCCCCCCCCCC)C(=O)NCCCOCCOCCOCCCNC(=O)CCOCCOCCOCCOCCOCCC(=O)NCCCOCCOCCOCCCNC(=O)[C@@H](CCCCNC(=O)CCCCCCCCCCCCC)NC(=O)CCCCCCCCCCCCC [Example 4Myr, N1,N19-bis((R)-15,22-dioxo-16-tetradecanamido-4,7,10-trioxa-14,21-diazapenta-triacontyl)-4,7,10,13,16-pentaoxanonadecane-1,19-diamide]	–	in vitro (pHSC) EC50 or % KD (gp46 [1]): 27% @ 50 nM
